Data taken from US20130259986A1, “COMPOSITIONS AND METHODS FOR INHIBITING PRECIPITATION OF DYES IN A BEVERAGE” (Kraft Foods Global Brands LLC, priority 2012, published 2013).

How the values were obtained:
[1] = Observation of precipitate in model solutions of azo-dye, salt, benzaldehyde and water; type: physicochemical; conditions: for precipitation of a single azo-dye from solutions: solutions with (1) blends of two or more salts, (2) sweetener, (3) fiber (inulin) with sodium chloride; for precipitate in a solution of the substance and water: substance and water only
Description: It was observed that many solutions fail to keep a single azo-dye species stable in the presence of electrolyte ions. For example, the azo-dye (Yellow 5, Yellow 6, or Red 40) precipitated from solutions containing the following: (1) blends of two or more salts (including potassium chloride, tripotassium phosphate, sodium chloride, and magnesium chloride) with a single azo-dye; (2) sweetener (including sucrose, fructose, and raw honey) and a single azo-dye; and (3) fiber (such as inulin) with sodium chloride and a single azo-dye.
Such precipitate is believed to be crystals of the azo-dye or possibly even co-crystals of the azo-dye with sodium chloride, sodium ions, chloride ions, or sodium and chloride ions. It is believed that the presence of an ion (not limited to sodium and/or chloride) creates an unfavorable environment for the azo-dye to exist in and causes the azo-dye to precipitate or crystallize. However, this crystallization or precipitation is not observed when levels of salt or azo-dye are below the threshold for the reaction to occur.
While wishing to not be bound by theory, a solution of benzaldehyde, salt, Red 40, and water causes precipitation through a different mechanism when compared to precipitate found from solutions of salt, an azo-dye, and water. […] Such precipitate is believed to be due the complexation of salt, Red 40, and benzaldehyde. This complexation may occur due to the thermodynamic unfavorability of all three components to exist in solution with one another. The precipitation found in this system appears to be more sediment-like rather than crystal-like precipitate found in a solution of Red 40, salt, and water. However, crystals or co-crystals may exist within the salt, Red 40, and benzaldehyde complexation and this complexation is not observed when levels of salt, azo-dye, or benzaldehyde are below the threshold for the reaction to occur.

[2] = Example 5: precipitation from 90× electrolyte beverage product with 0.45 wt % Red 40 and added benzaldehyde solution or propylene glycol; type: physicochemical
Method: A 90× electrolyte beverage product was made without flavor containing 0.45 wt % Red 40, and a 3.0% benzaldehyde solution was made with propylene glycol. The benzaldehyde solution was then added back to the flavorless base at various levels up to 10%. As a control, the same variants were made without benzaldehyde solution, but with 100% propylene glycol, to confirm that any precipitation was directly due to the benzaldehdye and not propylene glycol. The formulations are as follows: […]

[3] = 4 % added to 90 % electrolyte base (0.45 wt % Red 40), 0.12% benzaldehyde for the benzaldehyde solution
[4] = 6 % added to 90 % electrolyte base (0.45 wt % Red 40), 0.18% benzaldehyde for the benzaldehyde solution
[5] = 8 % added to 90 % electrolyte base (0.45 wt % Red 40), 0.24% benzaldehyde for the benzaldehyde solution
[6] = 10 % added to 90 % electrolyte base (0.45 wt % Red 40), 0.3% benzaldehyde for the benzaldehyde solution

| SMILES | precipitate / complexation in a solution of salt, azo-dye, benzaldehyde, and water [1] | precipitation of a single azo-dye from solutions [1] | precipitate in a solution of the substance and water [1] | Observations after 2 months at 70 F. (room temp) ([2]; 0.1 % added to 90 % electrolyte base (0.45 wt % Red 40)) | Observations after 2 months at 70 F. (room temp) ([2]; 0.25 % added to 90 % electrolyte base (0.45 wt % Red 40)) | Observations after 2 months at 70 F. (room temp) ([2]; 0.5 % added to 90 % electrolyte base (0.45 wt % Red 40)) | Observations after 2 months at 70 F. (room temp) ([2]; 1 % added to 90 % electrolyte base (0.45 wt % Red 40)) | Observations after 2 months at 70 F. (room temp) ([2]; 2 % added to 90 % electrolyte base (0.45 wt % Red 40)) | Observations after 2 months at 70 F. (room temp) [2, 3] | Observations after 2 months at 70 F. (room temp) [2, 4] | Observations after 2 months at 70 F. (room temp) [2, 5] | Observations after 2 months at 70 F. (room temp) [2, 6] | benzaldehyde content at which the system is free of precipitation ([2]; 90× electrolyte concentrate with 0.45 wt % Red 40, stored for up to 2 months) |
| --- | --- | --- | --- | --- | --- | --- | --- | --- | --- | --- | --- | --- | --- |
| COc1cc(S(=O)(=O)[O-])c(C)cc1N=Nc1c(O)ccc2cc(S(=O)(=O)[O-])ccc12.[Na+].[Na+] [Red 40] | not stable and produces precipitate | precipitated | free of precipitate | – | – | – | – | – | – | – | – | – | – |
| O=S(=O)([O-])c1ccc(N=Nc2c(O)ccc3cc(S(=O)(=O)[O-])ccc23)cc1.[Na+].[Na+] [Yellow 6] | no complexations were observed | precipitated | free of precipitate | – | – | – | – | – | – | – | – | – | – |
| CC(O)CO (stereo not drawn) [PG 100%, Propylene Glycol] | – | – | – | No precipitation | No precipitation | No precipitation | No precipitation | No precipitation | No precipitation | No precipitation | No precipitation | No precipitation | – |
| O=C(O)c1nn(-c2ccc(S(=O)(=O)O)cc2)c(O)c1N=Nc1ccc(S(=O)(=O)O)cc1 [Yellow 5] | no complexations were observed | precipitated | free of precipitate | – | – | – | – | – | – | – | – | – | – |
| O=Cc1ccccc1 [benzaldehyde] | – | – | free of precipitate | – | – | – | – | – | formed precipitation | formed precipitation | formed precipitation within hours | formed precipitation within hours | up to 0.11% |
